Counter-ions that a name gives are not always drawn.
Target: T1, menin and MLL (menin, Flag tagged; biotinylated MLL1 peptide 1-46aa) (Homo sapiens, UniProt O00255)
T1 sequence (O00255 1-610): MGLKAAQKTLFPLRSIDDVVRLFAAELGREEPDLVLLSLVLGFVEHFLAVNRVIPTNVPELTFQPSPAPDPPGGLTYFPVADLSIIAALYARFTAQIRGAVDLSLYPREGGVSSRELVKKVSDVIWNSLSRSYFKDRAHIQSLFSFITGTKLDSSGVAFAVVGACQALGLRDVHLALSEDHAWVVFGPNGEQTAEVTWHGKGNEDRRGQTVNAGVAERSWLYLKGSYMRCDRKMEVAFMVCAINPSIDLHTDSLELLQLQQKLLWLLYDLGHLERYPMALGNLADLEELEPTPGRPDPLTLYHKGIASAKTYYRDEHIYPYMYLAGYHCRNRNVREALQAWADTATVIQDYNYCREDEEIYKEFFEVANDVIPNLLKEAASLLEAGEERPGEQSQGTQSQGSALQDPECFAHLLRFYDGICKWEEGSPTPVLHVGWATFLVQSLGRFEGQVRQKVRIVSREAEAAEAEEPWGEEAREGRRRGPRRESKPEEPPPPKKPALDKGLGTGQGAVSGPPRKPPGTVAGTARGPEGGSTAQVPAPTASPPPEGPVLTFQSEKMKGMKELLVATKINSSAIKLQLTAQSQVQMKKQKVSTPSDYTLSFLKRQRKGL
Assay: biochemical
Conditions: AlphaLISA, 1 nM menin, 10 nM biotinylated MLL1 peptide

[1] = IC50, binding inhibitory activity between menin and MLL

Experimental: Then, the fluorescence signal by AlphaLISA (registered trademark, PerkinElmer Co., Ltd.) was measured using a plate reader (PerkinElmer Co., Ltd., EnVisionXcite).

Structure (SMILES)	IC50 [1]	IC50 (cell free IC50 (nM))
COc1nc(N(C)[C@H]2C[C@@H](NCc3ccc(-c4cnc(OC)c(OC)c4)cc3)C[C@H]2O)c2cc(CC(F)(F)F)sc2n1 [Example 81, (1R,2S,4R)-4-({[4-(5,6-dimethoxypyridin-3-yl)phenyl]methyl}amino)-2-{[2-methoxy-6-(2,2,2-trifluoroethyl)thieno[2,3-d]pyrimidin-4-yl](methyl)amino}cyclopentan-1-ol hydrochloride]	6.1 nM	–
[2H]C([2H])([2H])Oc1cc(-c2ccc(CN[C@H]3C[C@@H](O)[C@@H](N(C)c4nc(OC)nc5sc(CC(F)(F)F)cc45)C3)cc2)nnc1OC([2H])([2H])[2H] [Example 123, (1R,2S,4R)-4-{[(4-{5,6-bis[(^2H3)methyloxy]pyridazin-3-yl}phenyl)methyl}amino}-2-{[2-methoxy-6-(2,2,2-trifluoroethyl)thieno[2,3-d]pyrimidin-4-yl](methyl}amino}cyclopentan-1-ol]	0.6 nM	–
[2H]C([2H])([2H])N(c1ncc(-c2ccc(CN[C@H]3C[C@@H](O)[C@@H](N(C)c4ncnc5sc(CC(F)(F)F)cc45)C3)cc2)cc1OC)C([2H])([2H])[2H] [Example 122, (1R,2S,4R)-4-({[4-(6-{bis[(^2H3)methyl]amino}-5-methoxypyridin-3-yl)phenyl]methyl}amino)-2-{methyl[6-(2,2,2-trifluoroethyl)thieno[2,3-d]pyrimidin-4-yl]amino}cyclopentan-1-ol]	1.7 nM	–
CN(c1ncnc2sc(CC(F)(F)F)cc12)[C@H]1C[C@@H](NCc2ccc(-c3cccc(CS(C)(=O)=O)c3)cc2)C[C@H]1O [Example 86, (1R,2S,4R)-4-[({3′-[(methanesulfonyl)methyl][1,1′biphenyl]-4-yl}methyl)amino]-2-{methyl[6-(2,2,2 trifluoroethyl)thieno[2,3-d]pyrimidin-4-yl]amino}cyclopentan-1-ol hydrochloride]	20.9 nM	–
COc1ncc(-c2ccc(CN[C@H]3CC[C@@H](N(C)c4ncnc5sc(CC(F)(F)F)cc45)C3)cc2)s1 [Example 130, (1R,3S)—N^3-{[4-(2-methoxy-1,3-thiazol-5-yl)phenyl]methyl}-N^1-methyl-N^1-[6-(2,2,2-trifluoroethyl)thieno[2,3-d]pyrimidin-4-yl]cyclopentane-1,3-diamine Hydrochloride]	6.5 nM	–
COc1cc(-c2ccc(CN[C@H]3C[C@@H](O)[C@@H](N(C)c4ncnc5sc(CC(F)(F)F)cc45)C3)cc2)nnc1Oc1cccnc1 [Example 107, (1R,2S,4R)-4-{[(4-{5-methoxy-6-[(pyridin-3-yl)oxy]pyridazin-3-yl}phenyl)methyl]amino}-2-{methyl[6-(2,2,2-trifluoroethyl)thieno[2,3-d]pyrimidin-4-yl]amino}cyclopentan-1-ol hydrochloride]	1.3 nM	–
COc1cc(-c2ccc(CN[C@H]3C[C@@H](O)[C@@H](N(C)c4ncnc5sc(CC(F)(F)F)cc45)C3)cc2)cnc1C(F)(F)F [Example 88, (1R,2S,4R)-4-[({4-[5-methoxy-6-(trifluoromethyl)pyridin-3-yl]phenyl}methyl)amino]-2-{methyl[6-(2,2,2-trifluoroethyl)thieno[2,3-d]pyrimidin-4-yl]amino}cyclopentan-1-ol hydrochloride]	27.8 nM	–
O=C(NC1COC1)c1ccc(CN[C@H]2CCC[C@@H](Nc3ncnc4sc(CC(F)(F)F)cc34)C2)cc1 [Example 10, N-(oxetan-3-yl)-4-({[(1S,3R)-3-{[6-(2,2,2-trifluoroethyl)thieno[2,3-d]pyrimidin-4-yl]amino}cyclohexyl]amino}methyl)benzamide Hydrochloride]	–	199 nM
CN(c1ncnc2sc(CC(F)(F)F)cc12)[C@H]1C[C@@H](NCc2cccc(-c3cccnc3)c2)C[C@H]1O [Example 124, (1R,2S,4R)-2-{methyl[6-(2,2,2-trifluoroethyl)thieno[2,3-d]pyrimidin-4-yl]amino}-4-({[3-(pyridin-3-yl)phenyl]methyl}amino)cyclopentan-1-ol hydrochloride]	182 nM	–
COc1nc(N(C)[C@H]2C[C@@H](NCc3ccc(-c4nnc(OC(F)F)cc4OC)cc3)C[C@H]2O)c2cc(CC(F)(F)F)sc2n1 [Example 110, (1R,2S,4R)-4-[({4-[6-(difluoromethoxy)-4-methoxypyridazin-3-yl]phenyl}methyl)amino]-2-{[2-methoxy-6-(2,2,2-trifluoroethyl)thieno[2,3-d]pyrimidin-4-yl](methyl)amino}cyclopentan-1-ol hydrochloride]	2.1 nM	–
CN(c1ncnc2sc(CC(F)(F)F)cc12)[C@@H]1CC[C@H](NCc2ccc(-c3ccc(-c4ccc(Cl)nc4)nc3)cc2)C1 [Example 13, (1R,3S)—N^3-{[4-(6′-chloro[2,3′-bipyridine]-5-yl)phenyl]methyl}-N^1-methyl-N^1-[6-(2,2,2-trifluoroethyl)thieno[2,3-d]pyrimidin-4-yl]cyclopentane-1,3-diamine]	–	7.6 nM
CN(c1ncnc2sc(CC(F)(F)F)nc12)[C@@H]1CC[C@H](NCc2ccc3[nH]c(C#N)cc3c2)C1 [Example 3, 5-({[(1S,3R)-3-{methyl[2-(2,2,2-trifluoroethyl)[1,3]thiazolo[5,4-d]pyrimidin-7-yl]amino}cyclopentyl]amino}methyl)-1H-indole-2-carbonitrile Hydrochloride]	–	81.8 nM
CNc1nc(N(C)[C@H]2C[C@@H](NCc3ccc(-c4cc(F)cc(OC)c4)cc3)C[C@H]2O)c2cc(CC(F)(F)F)sc2n1 [Example 75, (1R,2S,4R)-4-{[(3′-fluoro-5′-methoxy[1,1′-biphenyl]-4-yl)methyl}amino}-2-{methyl[2-(methylamino)-6-(2,2,2-trifluoroethyl)thieno[2,3-d]pyrimidin-4-yl]amino}cyclopentan-1ol hydrochloride]	17.2 nM	–
CN(c1ncnc2sc(CC(F)(F)F)cc12)[C@H]1C[C@@H](NCc2ccc(-c3cccc(N(C)S(C)(=O)=O)c3)cc2)C[C@H]1O [Example 71, N-[4′-({[(1R,3R,4S)-3-hydroxy-4-{methyl[6-(2,2,2-trifluoroethyl)thieno[2,3-d]pyrimidin-4-yl]amino}cyclopentyl]amino}methyl)[1,1′-biphenyl]-3-yl]-N-methylmethanesulfonamide hydrochloride]	0.6 nM	–
CN(c1ncnc2sc(CC(F)(F)F)cc12)[C@@H]1CC[C@H](NCc2ccc(S(=O)(=O)N3CCCC(O)C3)cc2)C1 (mixture of isomers) [Example 57, l-[4-({[(1S,3R)-3-{methyl[6-(2,2,2trifluoroethyl)thieno[2,3-d]pyrimidin-4-yl]amino}cyclopentyl]amino}methyl)benzene-1-sulfonyl]piperidin-3-ol hydrochloride (diastereomer mixture)]	–	61.2 nM
CN(c1ncnc2ccc(CC(F)(F)F)cc12)[C@@H]1CC[C@H](NCc2ccc(O)cc2)C1 [Example 5, 4-({[(1S,3R)-3-{methyl[6-(2,2,2-trifluoroethyl)quinazolin-4-yl]amino}cyclopentyl]amino}methyl)phenol Hydrochloride]	–	856 nM
Cc1ncc(-c2ccc(CN[C@H]3CC[C@@H](N(C)c4ncnc5sc(CC(F)(F)F)cc45)C3)cc2)cc1OC(F)F [Example 58, (1R,3S)-N^3-({4-[5-(difluoromethoxy)-6-methylpyridin-3-yl]phenyl}methyl)-N^1-methyl-N^1-[6-(2,2,2-trifluoroethyl)thieno[2,3-d]pyrimidin-4-yl]cyclopentane-1,3-diamine hydrochloride]	–	15.2 nM
Cc1c(CN[C@H]2CC[C@@H](N(C)c3ncnc4sc(CC(F)(F)F)cc34)C2)ccc2c1cc(C#N)n2Cc1cn[nH]c1 [Example 2, 4-methyl-5-({[(1S,3R)-3-{methyl[6-(2,2,2-trifluoroethyl)thieno[2,3-d]pyrimidin-4-yl]amino}cyclopentyl]amino}methyl)-1-[(1H-pyrazol-4-yl)methyl]-1H-indole-2-carbonitrile Hydrochloride]	–	12.8 nM
C=CC(=O)N(C)c1nnc(-c2ccc(CN[C@H]3C[C@@H](O)[C@@H](N(C)c4nc(OC)nc5sc(CC(F)(F)F)cc45)C3)cc2)cc1OC [Example 113, N-{6-[4-({[(1R,3R,4S)-3-hydroxy-4-{[2-methoxy-6(2,2,2-trifluoroethyl)thieno[2,3-d]pyrimidin-4-yl](methyl)amino}cyclopentyl]amino}methyl)phenyl]-4-methoxypyridazin-3-yl}-N-methylprop-2-enamide hydrochloride]	29.2 nM	–
CN(c1ncnc2sc(CC(F)(F)F)cc12)[C@@H]1CC[C@H](NCC2CCCCC2)C1 [Example 28, (1R,3S)-N^3-(cyclohexylmethyl)-N^1-methyl-N^1-[6-(2,2,2-trifluoroethyl)thieno[2,3-d]pyrimidin-4-yl]cyclopentane-1,3-diamine hydrochloride]	–	1160 nM
CN(c1nc(N)nc2sc(CC(F)(F)F)cc12)[C@H]1C[C@@H](NCc2ccc(-n3ccnc3)cc2)C[C@H]1O [Example 21, (1R,2S,4R)-2-{[2-amino-6-(2,2,2-trifluoroethyl)thieno[2,3-d]pyrimidin-4-yl](methyl)amino}-4-({[4-(1H-imidazol-1-yl)phenyl]methyl}amino)cyclopentan-1-ol Hydrochloride]	–	7 nM
